Measured values as given in US10597388B2, “Pyridazinone herbicides” (FMC CORPORATION, priority 2014, dated 2020).
Like-named read-outs stand apart in the source and are kept apart here.

Legend:
Format in all cases: in vivo
[1] = test system: sedge, umbrella (small-flower umbrella sedge, Cyperus difformis); experiment: Test B flooded paddy test; settings: 250 g ai/ha, Flood, visual rating on scale of 0 to 100 where 0 is no effect and 100 is complete control, 13 to 15 d after treatment; for pest or weed control at 250 g/ha: Cyperus difformis, 360 h, read-out: Plant response rating, Sedge, Umbrella
In short: (§1)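 Plants grown to the 2-leaf stage. At treatment, pots were flooded to 3 cm above the soil, compound was applied directly to the paddy water, and that depth was held throughout. After 13 to 15 d in the greenhouse, response was rated visually against controls on a 0 (no effect) to 100 (complete control) scale.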

[2] = test system: ducksalad (Heteranthera limosa); experiment: Test B flooded paddy test; settings: 250 g ai/ha, Flood, visual rating on scale of 0 to 100 where 0 is no effect and 100 is complete control, 13 to 15 d after treatment; for pest or weed control at 250 g/ha: Heteranthera limosa, 360 h, read-out: Plant response rating, Ducksalad
In short: as §1

[3] = test system: barnyardgrass (Echinochloa crus-galli); experiment: Test B flooded paddy test; settings: 250 g ai/ha, Flood, visual rating on scale of 0 to 100 where 0 is no effect and 100 is complete control, 13 to 15 d after treatment; for pest or weed control at 250 g/ha: Echinochloa crus-galli, 360 h, read-out: Plant response rating, Barnyardgrass
In short: as §1

rice (Oryza sativa) = experiment: Test B flooded paddy test; settings: 250 g ai/ha, Flood, visual rating on scale of 0 to 100 where 0 is no effect and 100 is complete control, 13 to 15 d after treatment; for plant injury at 250 g/ha: Oryza sativa, 360 h, read-out: Plant response rating, Rice
In short: as §1

[4] = test system: ryegrass, Italian (Italian ryegrass, Lolium multiflorum); experiment: Test A greenhouse herbicide test, pre- and postemergence; settings: for pest or weed control at 125 g/ha / pest or weed control at 500 g/ha: Lolium multiflorum, 240 h
In short: (§2)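 Seeds in loam–sand blend received a preemergence directed soil spray; plants at 2–10 cm, one- to two-leaf stage, received postemergence sprays. Compounds in a non-phytotoxic solvent with surfactant. After about 10 d in a greenhouse, injury rated visually versus untreated controls on a 0–100 scale (100 = complete control).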

kochia (Kochia scoparia) = experiment: as above; settings: for pest or weed control at 125 g/ha / pest or weed control at 500 g/ha: Bassia scoparia, 240 h
In short: as §2

[5] = test system: wheat (Triticum aestivum); experiment: as above; settings: Postemergence; for plant injury at 125 g/ha / plant injury at 500 g/ha: Triticum aestivum, post-emergence, 240 h; for plant injury at 125 g/ha: read-out: Plant response rating, Wheat; for plant injury at 500 g/ha: 0 is no effect, 100 is complete control, read-out: Wheat plant response rating
In short: as §2

[6] = post-emergence, Postemergence, 125 g ai/ha, visual rating after approx. 10 d, 0 to 100 scale (0 no effect, 100 complete control), read-out: Plant response rating, Ryegrass, Italian
[7] = post-emergence, Postemergence, 500 g ai/ha, 0 to 100 scale, 0 is no effect, 100 is complete control, read-out: Ryegrass, Italian plant response rating
[8] = pre-emergence, Preemergence, 125 g ai/ha, 0 to 100 scale where 0 is no effect and 100 is complete control, read-out: Ryegrass, Italian plant response rating
[9] = pre-emergence, Preemergence, 500 g ai/ha, 0 to 100 scale, 0 no effect, 100 complete control, read-out: Plant response rating, Ryegrass, Italian
[10] = post-emergence, Postemergence, 125 g ai/ha, visual rating after approx. 10 d, 0 to 100 scale (0 no effect, 100 complete control), read-out: Plant response rating, Kochia
[11] = post-emergence, Postemergence, 500 g ai/ha, 0 to 100 scale, 0 is no effect, 100 is complete control, read-out: Kochia plant response rating
[12] = pre-emergence, Preemergence, 125 g ai/ha, 0 to 100 scale where 0 is no effect and 100 is complete control, read-out: Kochia plant response rating
[13] = pre-emergence, Preemergence, 500 g ai/ha, 0 to 100 scale, 0 no effect, 100 complete control, read-out: Plant response rating, Kochia
[14] = 125 g ai/ha, visual rating after approx. 10 d, 0 to 100 scale (0 no effect, 100 complete control)
[15] = 125 g ai/ha, 0 to 100 scale where 0 is no effect and 100 is complete control
[16] = Postemergence, 125 g ai/ha, 0 to 100 scale where 0 is no effect and 100 is complete control
[17] = Postemergence, 500 g ai/ha, visual rating after approx. 10 d, 0 to 100 scale (0 no effect, 100 complete control)
[18] = Preemergence, 125 g ai/ha, 0 to 100 scale where 0 is no effect and 100 is complete control
[19] = Preemergence, 500 g ai/ha, 0 to 100 scale where 0 is no effect and 100 is complete control
[20] = 500 g ai/ha, visual rating after approx. 10 d, 0 to 100 scale (0 no effect, 100 complete control)
[21] = Postemergence, 125 g ai/ha, 0 to 100 scale, 0 no effect, 100 complete control
[22] = Preemergence, 125 g ai/ha, visual injury rating, 0 to 100 scale (0 no effect, 100 complete control), approx. 10 d

Structure (SMILES) | pest or weed control at 250 g/ha [1] [%] | pest or weed control at 250 g/ha [2] [%] | pest or weed control at 250 g/ha [3] [%] | plant injury at 250 g/ha (rice (Oryza sativa)) [%] | pest or weed control at 500 g/ha [4, 7] [%] | pest or weed control at 125 g/ha [4, 8] [%] | pest or weed control at 500 g/ha [4, 9] [%] | pest or weed control at 500 g/ha (kochia (Kochia scoparia); [11]) [%] | pest or weed control at 125 g/ha (kochia (Kochia scoparia); [12]) [%] | pest or weed control at 500 g/ha (kochia (Kochia scoparia); [13]) [%] | plant injury at 500 g/ha ([5]; 500 g ai/ha, 0 to 100 scale) [%] | Plant response rating, Sedge, Umbrella [1] | Plant response rating, Ducksalad [2] | Plant response rating, Barnyardgrass [3] | Plant response rating, Rice (rice (Oryza sativa)) | Plant response rating, Ryegrass, Italian [4, 17] | Plant response rating, Ryegrass, Italian [4, 19] | Plant response rating, Kochia (kochia (Kochia scoparia); [17]) | Plant response rating, Kochia (kochia (Kochia scoparia); [19]) | Plant response rating, Wheat [5, 20] | also measured
Cc1cc(C)c2oc(C)c(-c3c(O)c(C)nn(C)c3=O)c2c1 [Compound 12, 5-hydroxy-2,6-dimethyl-4-(2,5,7-trimethyl-3-benzofuranyl)-3(2H)-pyridazinone] | 0 | 30 | 0 | 0 | 70 | 20 | 50 | 60 | 0 | 10 | 0 | – | – | – | – | – | – | – | – | – | pest or weed control at 125 g/ha [4, 6]: 60%; pest or weed control at 125 g/ha (kochia (Kochia scoparia); [10]): 0%; plant injury at 125 g/ha [5, 14]: 0%
CC(=O)Oc1c(C)nn(C)c(=O)c1-c1c(C)oc2c(C)cccc12 [Compound 15, 5-(acetyloxy)-4-(2,7-dimethyl-3-benzofuranyl)-2,6-dimethyl-3(2H)-pyridazinone] | 0 | 20 | 0 | 0 | 90 | 50 | 100 | 50 | 0 | 0 | 0 | – | – | – | – | – | – | – | – | – | pest or weed control at 125 g/ha [4, 6]: 50%; pest or weed control at 125 g/ha (kochia (Kochia scoparia); [10]): 50%; plant injury at 125 g/ha [5, 14]: 0%
CCc1sc2cc(C)cc(C)c2c1-c1c(O)c(C)nn(C)c1=O [Compound 19, 4-(2-ethyl-4,6-dimethylbenzo[b]thien-3-yl)-5-hydroxy-2,6-dimethyl-3(2H)-pyridazinone] | 0 | 0 | 0 | 0 | 0 | 0 | 0 | 0 | 0 | 0 | 0 | – | – | – | – | – | – | – | – | – | pest or weed control at 125 g/ha [4, 6]: 0%; pest or weed control at 125 g/ha (kochia (Kochia scoparia); [10]): 0%; plant injury at 125 g/ha [5, 14]: 0%
COc1nn(C)c(=O)c(-c2c(C)c(C)cc3ccccc23)c1O [Compound 46, 4-(2,3-dimethyl-1-naphthalenyl)-5-hydroxy-6-methoxy-2-methyl-3(2H)-pyridazinone] | 0 | 0 | 0 | 0 | 80 | 30 | 50 | 40 | 30 | 30 | 20 | – | – | – | – | – | – | – | – | – | pest or weed control at 125 g/ha ([4]; post-emergence, Postemergence, 125 g ai/ha, 0 to 100 scale where 0 is no effect and 100 is complete control, read-out: Plant response rating, Ryegrass, Italian): 30%; pest or weed control at 125 g/ha (kochia (Kochia scoparia); post-emergence, Postemergence, 125 g ai/ha, 0 to 100 scale where 0 is no effect and 100 is complete control, read-out: Plant response rating, Kochia): 30%; plant injury at 125 g/ha [5, 15]: 0%
CCC(=O)Oc1c(C)nn(C)c(=O)c1-c1ccc(Br)c2ccccc12 [Compound 133] | – | – | – | – | – | – | – | – | – | – | – | 0 | 0 | 0 | 20 | 100 | 100 | 100 | 100 | 30 | Plant response rating, Ryegrass, Italian [4, 16]: 100; Ryegrass, Italian plant response rating [4, 18]: 100; Plant response rating, Kochia (kochia (Kochia scoparia); [16]): 90; Kochia plant response rating (kochia (Kochia scoparia); [18]): 40; Plant response rating, Wheat [5, 15]: 20
COC(=O)Oc1c(Br)nn(C)c(=O)c1-c1c(C)ccc2ccccc12 [Compound 137] | – | – | – | – | – | – | – | – | – | – | – | 65 | 40 | 25 | 0 | 100 | 100 | 100 | 100 | 90 | Plant response rating, Ryegrass, Italian [4, 16]: 100; Ryegrass, Italian plant response rating [4, 18]: 100; Plant response rating, Kochia (kochia (Kochia scoparia); [16]): 100; Kochia plant response rating (kochia (Kochia scoparia); [18]): 30; Plant response rating, Wheat [5, 15]: 50
COc1nn(C)c(=O)c(-c2c(C)ccc3ccccc23)c1OC(C)=O [Compound 138] | – | – | – | – | – | – | – | – | – | – | – | 0 | 0 | 0 | 0 | 100 | 100 | 100 | 100 | 20 | Plant response rating, Ryegrass, Italian [4, 16]: 90; Plant response rating, Kochia (kochia (Kochia scoparia); [16]): 100; Kochia plant response rating (kochia (Kochia scoparia); [18]): 40; Plant response rating, Wheat [5, 15]: 0
Cc1ccc2ccccc2c1-c1c(OC(=O)N2CCOCC2)c(Br)nn(C)c1=O [Compound 176] | – | – | – | – | – | – | – | – | – | – | – | 0 | 0 | 0 | 0 | 100 | 90 | 70 | 20 | 0 | Plant response rating, Ryegrass, Italian [4, 21]: 30; Plant response rating, Ryegrass, Italian [4, 22]: 0; Plant response rating, Kochia (kochia (Kochia scoparia); [21]): 30; Plant response rating, Kochia (kochia (Kochia scoparia); [22]): 0; Plant response rating, Wheat ([5]; 125 g ai/ha, 0 to 100 scale, 0 no effect, 100 complete control): 0
